Measured values published in patent US9616107B2, “Therapy for kidney disease and/or heart failure” (priority 2011, dated 2017).
“Also recorded” adds a separate entry of the source. Like-named read-outs stand apart in the source and are kept apart here. Marks after values point to notes of the source that are not given here. Ends that are not written are not given here.

Experiment: Toxicology study of VD in canines: 5-day continuous subcutaneous infusion, plasma VD by radioimmunoassay, clinical observations
Format: in vivo
Settings: for half-life / AUC(0-t) / AUC / Tmax / Cmax / t1/2: beagle; for AUC(0-t): data through 122 hours; for average steady state peak concentrations: n=1 per sex
Experimental: VD was administered to canines via a subcutaneous delivery route. The dosing was performed at a high level to assess the toxicity of VD and to determine if a lethal dosing amount of the VD can be reached by subcutaneous administration.
VD was administered subcutaneously to canines using a Medtronic Paradigm® infusion pump (model MMT772) over a period of 5 days. VD was obtained as an acetate salt (VD-acetate) from Bachem (lot 2502022) and prepared in Tris/Glycerin/m-cresol buffer at a concentration of 15 mg/mL. The Tris/Glycerin/m-cresol buffer was prepared by mixing 16.0 g glycerol, 6.05 g tris-(hydroxymethyl)-aminomethane (“Tris”), 2.50 g meta cresol in a 1.00 L volumetric flask. Approximately 900 mL nanopure water was added to the volumetric flask and the mixture was magnetically stirred to reach complete dissolution. 4 normal hydrochloric acid was used to adjust pH to […] at 25° C.
VD was administered to one male and one female beagle canine at varying dosing amounts. Each canine received a first dosage level for 5 consecutive days followed by a 2-day washout period. Then, the same canines received a second, higher dosage level for an additional 5 consecutive days.
Prior to the beginning of dosing with VD (Day 0), the canines were placed in a sling and the dose site on the dorsolateral thorax was shaved. The shaved area was swabbed with 70% isopropyl alcohol and allowed to dry. DuraPrep™ (3M) was then applied and allowed to dry for 3 minutes. The catheter of the infusion set (Medtronic Silhouette Paradigm® Infusion Set MMT-378) was placed subcutaneously and perpendicular to the spine, and attached to the skin. The extension set was then attached to a previously weighed reservoir filled with VD at a concentration of 15 mg/mL in the Tris/Glycerin/m-cresol buffer. The reservoir was inserted into the pump located in a jacket pocket and dosing was commenced. The jacket was then secured and a collar was placed on each canine. Every day during the 5-day period, the reservoirs were exchanged with new filled reservoirs at approximately the same time each day.
At the end of the first 5-day dosing period, the infusion sets and jackets were removed, the area where the catheter was placed was marked, and the animals were allowed a 2-day washout period prior to the next treatment. For the next treatment at the second dosing amount, a new infusion site was chosen on the skin, and the pump was prepared as before.
The daily dosage level during the first 5-day period (Group 1) was 1.44 mg/(kg·day) (or 1000 ng/(kg·min)) for each canine corresponding with a dosage volume of 0.096 ml/(kg·day). The total dose delivered to each canine over the first 5-day period was 7.20 mg/kg. […] Following the 2-day washout period, the daily dosage level was increased to 2.88 mg/(kg·day) (or 2000 ng/(kg·min)) for each canine corresponding with a dosage volume of 0.192 ml/(kg·day) during the second 5-day period (Group 2). The total dose delivered to each canine over the second 5-day period was 14.4 mg/kg.
All animals were observed twice daily during the first and second 5-day periods for mortality and moribund appearance. Clinical examinations were also performed daily for the animals after dosing began. Detailed physical examinations were conducted on Day 0 prior to dosing and on study Day 5 after the pumps and jackets were removed from the canines. Individual body weights were recorded twice weekly during a 7-day pretest period, on study Day 0 prior to dosing and study Day 5 after the pumps and jackets were removed from the canines. Body weights and body weight changes were calculated for the corresponding intervals. Individual food consumption was recorded daily during the pretest period and throughout the study.
Blood samples for determination of plasma drug concentration were collected at 2, 4, 24 and 96 hours after the beginning of infusion, immediately prior to the end of infusion on Day 5, and 0.5, 1, 1.5, and 2 hours after the end of dosing. […]

**Q.** For “EVVPPQVLSEPNEEAGAALSPLPEVPPWTGEVSPAQR [VD, Vessel Dilator]”, which half-life (dog, in vivo, t1/2) is on record?
**A.** 0.735 h

**Q.** And the AUC(0-t) (dog, in vivo, female canine, 1.44 mg/kg/day (7.20 mg/kg), SC infusion 5 days)?
**A.** 34700 ng·h/mL

**Q.** And the AUC (dog, in vivo, female canine, 1.44 mg/kg/day (7.20 mg/kg), SC infusion 5 days, τ 120 hours, read-out: AUCτ (AUGτ [sic]))?
**A.** 34400 ng·h/mL

**Q.** And the Tmax (dog, in vivo, female canine, 1.44 mg/kg/day (7.20 mg/kg), SC infusion 5 days, hours after start of infusion, read-out: Tmax)?
**A.** 96 h

**Q.** What about the AUC (dog, in vivo, female canine, 2.88 mg/(kg·day), maximum tolerated dose not determined, read-out: AUC that a maximum tolerated dose would exceed) of the same sequence?
**A.** > 63300 ng·h/mL

**Q.** What about the Cmax (dog, in vivo, female canine, 2.88 mg/(kg·day), maximum tolerated dose not determined, read-out: Cmax that a maximum tolerated dose would exceed) of the same sequence?
**A.** > 579 ng/mL

**Q.** What about the AUC(0-t) (dog, in vivo, female canine, 2.88 mg/kg/day (14.4 mg/kg), SC infusion 5 days) of the same sequence?
**A.** 64100 ng·h/mL

**Q.** And the AUC (dog, in vivo, female canine, 2.88 mg/kg/day (14.4 mg/kg), SC infusion 5 days, τ 120 hours, read-out: AUCτ (AUGτ [sic]))?
**A.** 63300 ng·h/mL

**Q.** What about the Tmax (dog, in vivo, female canine, 2.88 mg/kg/day (14.4 mg/kg), SC infusion 5 days, hours after start of infusion, read-out: Tmax) of the same sequence?
**A.** 96 h

**Q.** And the Cmax (dog, in vivo, female canine, 2.88 mg/kg/day (14.4 mg/kg), SC infusion 5 days, read-out: Cmax)?
**A.** 579 ng/mL

**Q.** What about the Tmax (dog, in vivo, female canine, both dosages, after start of infusion, read-out: Tmax) of the same sequence?
**A.** ~96 h

**Q.** What about the AUC(0-t) (dog, in vivo, male canine, 1.44 mg/kg/day (7.20 mg/kg), SC infusion 5 days) of the same sequence?
**A.** 31200 ng·h/mL

**Q.** And the AUC (dog, in vivo, male canine, 1.44 mg/kg/day (7.20 mg/kg), SC infusion 5 days, τ 120 hours, read-out: AUCτ (AUGτ [sic]))?
**A.** 30800 ng·h/mL

**Q.** And the AUC (dog, in vivo, male canine, 2.88 mg/(kg·day), maximum tolerated dose not determined, read-out: AUC that a maximum tolerated dose would exceed)?
**A.** > 58200 ng·h/mL

**Q.** What about the Cmax (dog, in vivo, male canine, 2.88 mg/(kg·day), maximum tolerated dose not determined, read-out: Cmax that a maximum tolerated dose would exceed) of the same sequence?
**A.** > 655 ng/mL

**Q.** And the AUC(0-t) (dog, in vivo, male canine, 2.88 mg/kg/day (14.4 mg/kg), SC infusion 5 days)?
**A.** 58900 ng·h/mL

**Q.** And the AUC (dog, in vivo, male canine, 2.88 mg/kg/day (14.4 mg/kg), SC infusion 5 days, τ 120 hours, read-out: AUCτ (AUGτ [sic]))?
**A.** 58200 ng·h/mL

**Q.** And the “survival and adverse effects on weight, food consumption or behavior” value (both canines, 1.44 then 2.88 mg/(kg·day), 5 days each)?
**A.** survived to the scheduled study termination without appreciable adverse effects on weight, food consumption or behavior

**Q.** What about the half-life (both sexes, dog, in vivo, calculated half-life for elimination of Vessel Dilator in plasma) of the same sequence?
**A.** 0.7 to 1.2 h

**Q.** And the Tmax (both sexes, dog, in vivo, sc)?
**A.** 108 h

**Q.** And the “average steady state peak concentrations” value (canines, 1000 ng/kg·min constant SC dosing 5 days)?
**A.** 257 to 287 ng/mL

**Q.** And the “average steady state peak concentrations” value (canines, 2000 ng/kg·min constant SC dosing 5 days)?
**A.** 485 to 527 ng/mL

**Q.** What about the “tolerance and toxicological effects of continuous subcutaneous infusion” value (canines, up to 2.88 mg/(kg·day)) of the same sequence?
**A.** high tolerance and no noticeable toxicological effects; also recorded: well-tolerated

**Q.** What about the “maximum tolerated dose for prolonged subcutaneous administration” value (canines, expected) of the same sequence?
**A.** > 2000 ng/kg·min

**Q.** And the “effects on body weight” value (dog, in vivo)?
**A.** no effects on body weight

**Q.** What about the “effects related to food consumption” value (dog, in vivo) of the same sequence?
**A.** no effects related to food consumption

**Q.** What about the “fluctuation of plasma concentrations of VD” value (dog, in vivo) of the same sequence?
**A.** approximately 30%

**Q.** And the “potential VD administration-related clinical observations” value (dog, in vivo)?
**A.** reddened ears and/or reddened gums

**Q.** What about the “systemic exposure to VD (AUCτ and Cmax) versus dosage” value (dog, in vivo, 2.88 mg/kg/day) of the same sequence?
**A.** increased proportionally with the increase in dosage

**Q.** And the “plasma concentration up to which no toxicity issues were shown” value (dogs, continuous five day subcutaneous infusion)?
**A.** ~500 ng/mL

**Q.** And the t1/2 (female, dog, in vivo, sc)?
**A.** 1.21† h

**Q.** And the half-life (female, dog, in vivo, sc, t1/2)?
**A.** 0.801 h

**Q.** What about the Tmax (male, dog, in vivo) of the same sequence?
**A.** 120 h

**Q.** And the Tmax (male, dog, in vivo, sc)?
**A.** 120 h

**Q.** What about the t1/2 (male, dog, in vivo, sc) of the same sequence?
**A.** 0.793† h

**Q.** And the half-life (male, dog, in vivo, sc, t1/2)?
**A.** 0.735 h
